The values that follow are results of earlier work, collected in US12005095B2, “Eutectic extraction solvents, extraction methods by eutectigenesis using said solvents, and extracts derived from said extraction methods” (Givaudan France Naturals SAS, priority 2015, dated 2024).

SMILES strings stand for the structures.

In this series the test system is cellular melanogenesis.

`O=C1c2c(O)cc(O)cc2O[C@H](c2ccc(O)c(O)c2)[C@H]1O` [taxifolin]: the “effect on cellular melanogenesis, in words” value is “inhibit cellular melanogenesis”.
